Key:
[1] = system: human colorectal cancer cell line, COLO-320DM; experiment: Cell proliferation inhibitory activity test (Celltiter-Glo Luminescent Cell Viability Assay); format: cell-based; settings: COLO-320DM cells, 96 hours, read-out: COLO-320 DM cell proliferation inhibitory activity (GI50 class)
Method in brief: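 Cells grown in RPMI-1640 with 10% FBS and 2 mM glutamine, seeded overnight, then exposed to compound (1% DMSO final) for 96 h at 37° C., 5% CO2. Viability read by ATP luminescence; GI50 is the concentration reducing cell growth to 50% of DMSO control.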

tankyrase 1 (TNKS 1) = molecular target: T1, tankyrase 1 (TNKS 1) (Homo sapiens, UniProt O95271); experiment: Tankyrase inhibitory activity test (ELISA, self-polyADP ribosylation), tankyrase 1; format: biochemical; settings: tankyrase 1, ELISA, self-polyADP ribosylation; read-out: TNKS1 inhibitory activity (IC50 class)
T1 construct: 1,024-1,327aa; made in house; host or cells: cell-free protein synthesis system
T1 sequence (O95271 1024-1327): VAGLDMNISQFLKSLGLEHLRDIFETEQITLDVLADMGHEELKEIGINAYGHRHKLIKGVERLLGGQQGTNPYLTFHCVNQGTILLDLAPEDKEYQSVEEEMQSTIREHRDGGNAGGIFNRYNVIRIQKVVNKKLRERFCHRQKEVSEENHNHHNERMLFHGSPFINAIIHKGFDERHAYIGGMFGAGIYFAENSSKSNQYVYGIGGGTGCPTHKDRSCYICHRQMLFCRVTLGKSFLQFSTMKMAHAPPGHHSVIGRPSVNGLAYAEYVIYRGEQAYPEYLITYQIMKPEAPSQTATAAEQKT
Method in brief: (§1)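 Flag-tagged TNKS1 (1,024-1,327aa, SAM+PARP) and TNKS2 (613-1,116aa, ANK5+SAM+PARP) were made cell-free and captured overnight at 4 °C on anti-FLAG M2 plates. After 10 min compound preincubation in Tris pH 8.0/MgCl2/DTT buffer, NAD (225 μM) plus biotin-NAD (25 μM) solution was added for 45 min at 30 °C. Auto-PARylation was read by streptavidin-HRP chemiluminescence, giving IC50 from residual activity.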

tankyrase 2 (TNKS 2) = molecular target: T2, tankyrase 2 (TNKS 2) (Homo sapiens, UniProt Q9H2K2); experiment: Tankyrase inhibitory activity test (ELISA, self-polyADP ribosylation), tankyrase 2; format: biochemical; settings: tankyrase 2, ELISA, self-polyADP ribosylation; read-out: TNKS2 inhibitory activity (IC50 class)
T2 construct: 613-1, 116aa; made in house; host or cells: cell-free protein synthesis system
T2 sequence (Q9H2K2 613-1166): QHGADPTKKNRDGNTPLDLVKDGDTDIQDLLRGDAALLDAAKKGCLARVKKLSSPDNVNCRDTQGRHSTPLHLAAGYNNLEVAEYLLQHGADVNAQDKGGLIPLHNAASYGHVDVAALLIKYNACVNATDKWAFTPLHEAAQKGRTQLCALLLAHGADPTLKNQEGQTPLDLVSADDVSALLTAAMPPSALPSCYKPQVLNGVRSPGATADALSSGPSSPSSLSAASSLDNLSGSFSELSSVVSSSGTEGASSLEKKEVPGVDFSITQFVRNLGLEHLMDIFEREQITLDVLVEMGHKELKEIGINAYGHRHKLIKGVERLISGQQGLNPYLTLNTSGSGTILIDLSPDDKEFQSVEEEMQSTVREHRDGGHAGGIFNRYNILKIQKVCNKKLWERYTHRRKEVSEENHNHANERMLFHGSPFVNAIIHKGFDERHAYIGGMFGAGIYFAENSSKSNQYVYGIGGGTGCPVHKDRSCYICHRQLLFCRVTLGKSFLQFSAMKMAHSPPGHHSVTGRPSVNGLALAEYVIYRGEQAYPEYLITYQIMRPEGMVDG
Method in brief: as §1

Structure (SMILES)	GI50 [1] [nM]	IC50 (tankyrase 1 (TNKS 1)) [nM]	IC50 (tankyrase 2 (TNKS 2)) [nM]
CN(C)CCOc1cc(F)c2c(c1)N(C)C(=O)C21CCN(c2nc3c(c(=O)[nH]2)CCCN3C)CC1 [Example 357, 6-[2-(dimethylamino)ethoxy]-4-fluoro-1-methyl-1′-(8-methyl-4-oxo-3,4,5,6,7,8-hexa-hydropyrido [2,3-d]pyrimidin-2-yl) spiro[indoline-3,4′-piperidin]-2-one]	600 to 1000	< 20	< 20
CN1CCCc2c1nc(N1CCC3(CC1)C(=O)N(C)c1cc(OCCN4CCOCC4)cc(F)c13)[nH]c2=O [Example 360, 4-fluoro-1-methyl-1′-(8-methyl-4-oxo-3,4,5,6,7,8-hexahydropy-rido[2,3-d]pyrimidin-2-yl)-6-(2-morpho-linoethoxy) spiro [indoline-3,4′-piperidin]-2-one]	100 to 600	< 20	< 20
CN1CCCc2c1nc(N1CCC3(CC1)C(=O)N(C)c1cc(OCCN4CCS(=O)(=O)CC4)cc(F)c13)[nH]c2=O [Example 361, 6-[2-(1,1-dioxidothio-morpholino)ethoxy]-4-fluoro-1-methyl-1′-(8-methyl-4-oxo-3,4,5,6,7,8-hexahydropy-rido[2,3-d]pyrimidin-2-yl)spiro [indoline-3,4′-piperidin]-2-one]	600 to 1000	< 20	< 20
CN1CCN(CCOc2cc(F)c3c(c2)N(C)C(=O)C32CCN(c3nc4c(c(=O)[nH]3)CCCN4C)CC2)CC1 [Example 362, 4-fluoro-1-methyl-1′-(8-methyl-4-oxo-3,4,5,6,7,8-hexahydropy-rido[2,3-d]pyrimidin-2-yl)-6-[2-(4-methyl-piperazin-1-yl)ethoxy] spiro[indoline-3,4′-piperidin]-2-one]	100 to 600	< 20	< 20
CN1CCCc2c1nc(N1CCC3(CC1)C(=O)N(C)c1cc(OCCCN4CCOCC4)cc(F)c13)[nH]c2=O [Example 365, 4-fluoro-1-methyl-1′-(8-methyl-4-oxo-3,4,5,6,7,8-hexahydro-pyrido[2,3-d]pyrimidin-2-yl)-6-(3-morpholino-propoxy) spiro[indoline-3,4′-piperidin]-2-one]	600 to 1000	< 20	< 20
COCCOc1cc(F)c2c(c1)N(C)C(=O)C21CCN(c2nc3c(c(=O)[nH]2)CCCN3C)CC1 [Example 366, 4-fluoro-6-(2-methoxy)-1-methyl-1′-(8-methyl-4-oxo-3,4,5,6,7,8-hexahydropy-rido[2,3-d]pyrimidin-2-yl)spiro [indoline-3,4′-piperidin]-2-one]	100 to 600	< 20	< 20
CN1CCCc2c1nc(N1CCC3(CC1)C(=O)N(C)c1cc(OCCCN4CCCC4)cc(F)c13)[nH]c2=O [Example 367, 4-fluoro-1-methyl-1′-(8-methyl-4-oxo-3,4,5,6,7,8-hexahydropy-rido[2,3-d]pyrimidin-2-yl)-6-[3-(pyrrolidin-1-yl)propoxy] spiro[indoline-3,4′-piperidin]-2-one]	100 to 600	< 20	< 20
[2H]C([2H])([2H])N1CCCc2c1nc(N1CCC3(CC1)C(=O)N(CCO)c1cc(F)cc(F)c13)[nH]c2=O [Example 370, 4,6-difluoro-1-(2-hydroxyethyl)-1′-[8-(methyl-d3)-4-oxo-3,4,5,6,7,8-hexahydro-pyrido [2,3-d]pyrimidin-2-yl] spiro[in-doline-3,4′-piperidin]-2-one]	100 to 600	< 20	< 20
COc1cc(F)c2c(c1)N(C)C(=O)C21CCN(c2nc3c(c(=O)[nH]2)CCCN3C)CC1 [Example 372, 4-fluoro-6-methoxy-1-methyl-1′-(8-methyl-4-oxo-3,4,5,6,7,8-hexahydropyrido [2,3-d]pyrimidin-2-yl) spiro[indoline-3,4'-piperidin]-2-one]	100 to 600	< 20	< 20
COc1cc(F)c2c(c1)N(CCO)C(=O)C21CCN(c2nc3c(c(=O)[nH]2)CCCN3C)CC1 [Example 373, 4-fluoro-1-(2-hydroxy-ethyl)-6-methoxy-1′-(8-methyl-4-oxo-3,4,5,6,7,8-hexahydropyrido [2,3-d]pyrimidin-2-yl) spiro[indoline-3,4′-piperidin]-2-one]	< 100	< 20	< 20
CN1CCCc2c1nc(N1CCC3(CC1)C(=O)N(CC#N)c1cc(F)cc(F)c13)[nH]c2=O [Example 374, 2-(4,6-difluoro-1′-(8-methyl-4-oxo-3,4,5,6,7,8-hexahydropyrido [2,3-d]pyrimidin-2-yl)-2-oxospiro[indoline-3,4′-piperidin]-1-yl)acetonitrile]	< 100	< 20	< 20
CN(C)CCOc1cc(Cl)c2c(c1)N(C)C(=O)C21CCN(c2nc3c(c(=O)[nH]2)CCCN3C)CC1 [Example 375, 4-chloro-6-[2-(dimethylamino)ethoxy]-1-methyl-1′-(8-methyl-4-oxo-3,4,5,6,7,8-hexahydro-pyrido[2,3-d]pyrimidin-2-yl) spiro[indoline-3,4′-piperidin]-2-one]	100 to 600	< 20	< 20
CN1CCCc2c1nc(N1CCC3(CC1)C(=O)N(C)c1cc(OCCN4CCCCC4)cc(Cl)c13)[nH]c2=O [Example 376, 4-chloro-1-methyl-1′-(8-methyl-4-oxo-3,4,5,6,7,8-hexahydropy-rido[2,3-d]pyrimidin-2-yl)-6-(2-(piperidin-1-yl)ethoxy)spiro [indoline-3,4′-piperidin]-2-one]	100 to 600	< 20	< 20
CN1CCCc2c1nc(N1CCC3(CC1)C(=O)N(C)c1cc(OCCN4CCOCC4)cc(Cl)c13)[nH]c2=O [Example 377, 4-chloro-1-methyl-1′-(8-methyl-4-oxo-3,4,5,6,7,8-hexahydropy-rido[2,3-d]pyrimidin-2-yl)-6-(2-morpholino-ethoxy) spiro[indoline-3,4′-piperidin]-2-one]	100 to 600	< 20	< 20
CN1CCCc2c1nc(N1CCC3(CC1)C(=O)N(C)c1cc(OCCN4CCS(=O)(=O)CC4)cc(Cl)c13)[nH]c2=O [Example 378, 4-chloro-6-[2-(1,1-dioxi-dothio-morpholino)ethoxy]-1-methyl-1′-(8-methyl-4-oxo-3,4,5,6,7,8-hexahydropyrido [2,3-d]pyrimidin-2-yl)spiro [indoline-3,4′-piperidin]-2-one]	600 to 1000	< 20	< 20
COc1cc(F)c2c(c1)N(CC#N)C(=O)C21CCN(c2nc3c(c(=O)[nH]2)CCCN3C)CC1 [Example 379, 2-[4-fluoro-6-methoxy-1′-(8-methyl-4-oxo-3,4,5,6,7,8-hexahydropyrido [2,3-d]pyrimidin-2-yl)-2-oxospiro [indoline-3,4′-piperidin]-1-yl] acetonitrile]	< 100	< 20	< 20
CN1CCC(Oc2cc(F)c3c(c2)N(C)C(=O)C32CCN(c3nc4c(c(=O)[nH]3)CCCN4C)CC2)CC1 [Example 380, 4-fluoro-1-methyl-1′-(8-methyl-4-oxo-3,4,5,6,7,8-hexahydropyrido [2,3-d]pyrimidin-2-yl)-6-[(1-methylpiperidin-4-yl)oxy]spiro [indoline-3,4′-piperidin]-2-one]	600 to 1000	< 20	< 20
